Measurements reported in PubChem BioAssay AID256 (DTP/NCI, 2004).
“And” between values parts separate entries of the source, which are not always exact repeats. Equal entries are not always repeated. Toxic doses and inconclusive results are not listed. The calls were made as follows: active = survival T/C of 150% or more; inactive = T/C below 125% in these data.

Tested on: CD2F1 mice, L1210 leukemia ip, survival T/C
Assay: NCI In Vivo Anticancer Drug Screen. Data for tumor model L1210 Leukemia (intraperitoneal) in CD2F1 (CDF1) mice
Details: endpoint: mean survival time, higher = longer survival
Method in brief: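 Ratio T/C, where T is the treated-group value and C the vehicle-dosed control value, from mice implanted with a transplantable tumor.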

[1] = dose: 100.0 mg/kg/injection, schedule: Q01DX001 (ip), vehicle: saline with Tween-80
[2] = dose: 200.0 mg/kg/injection, schedule: Q01DX001 (ip), vehicle: saline with Tween-80
[3] = dose: 400.0 mg/kg/injection, schedule: Q01DX001 (ip), vehicle: saline with Tween-80
[4] = dose: 100.0 mg/kg/injection, schedule: Q01DX001 (ip), vehicle: saline
[5] = dose: 200.0 mg/kg/injection, schedule: Q01DX001 (ip), vehicle: saline
[6] = dose: 400.0 mg/kg/injection, schedule: Q01DX001 (ip), vehicle: saline
[7] = dose: 100.0 mg/kg/injection, schedule: Q04DX002 (ip), vehicle: saline
[8] = dose: 100.0 mg/kg/injection, schedule: Q04DX003 (ip), vehicle: saline with Tween-80
[9] = dose: 200.0 mg/kg/injection, schedule: Q04DX003 (ip), vehicle: saline with Tween-80
[10] = dose: 400.0 mg/kg/injection, schedule: Q04DX003 (ip), vehicle: saline with Tween-80
[11] = dose: 50.0 mg/kg/injection, schedule: Q01DX009 (ip), vehicle: saline with Tween-80
[12] = dose: 100.0 mg/kg/injection, schedule: Q01DX009 (ip), vehicle: saline with Tween-80

Measured: T/C

O=S(=O)(O)O.[NH2-].[NH2-].[Pt+2]
inactive: dose: 0.63 mg/kg/injection, schedule: Q04DX003 (ip), vehicle: dextrose 98 % of control | dose: 1.25 mg/kg/injection, schedule: Q04DX003 (ip), vehicle: dextrose 108 % of control | dose: 5.0 mg/kg/injection, schedule: Q04DX003 (ip), vehicle: dextrose 95 % of control

CC(=O)OCC1OC(OC(C)=O)C(NC(=O)N(CCSCCCl)N=O)C(OC(C)=O)C1OC(C)=O (centres undefined)
inactive: dose: 0.78 mg/kg/injection, schedule: Q01DX001 (ip), vehicle: water 96 % of control | dose: 1.56 mg/kg/injection, schedule: Q01DX001 (ip), vehicle: water 102 % of control | dose: 3.12 mg/kg/injection, schedule: Q01DX001 (ip), vehicle: water 106 % of control | dose: 6.25 mg/kg/injection, schedule: Q01DX001 (ip), vehicle: distilled water + Tween-80 106 % of control | dose: 6.25 mg/kg/injection, schedule: Q01DX001 (ip), vehicle: water 106 % of control

CCOCCC#N
inactive: dose: 50.0 mg/kg/injection, schedule: Q01DX009 (ip), vehicle: Klucel (hydroxypropylcellulose) (HPC) 102 % of control | dose: 100.0 mg/kg/injection, schedule: Q01DX009 (ip), vehicle: Klucel (hydroxypropylcellulose) (HPC) 102 % of control | dose: 200.0 mg/kg/injection, schedule: Q01DX009 (ip), vehicle: Klucel (hydroxypropylcellulose) (HPC) 102 % of control

CCOC(=O)c1cc(=O)c2cc(S(=O)(=O)F)ccc2[nH]1
inactive: dose: 100.0 mg/kg/injection, schedule: Q04DX003 (ip), vehicle: Klucel (hydroxypropylcellulose) (HPC) 103 % of control | dose: 200.0 mg/kg/injection, schedule: Q04DX003 (ip), vehicle: Klucel (hydroxypropylcellulose) (HPC) 103 % of control | dose: 400.0 mg/kg/injection, schedule: Q04DX003 (ip), vehicle: Klucel (hydroxypropylcellulose) (HPC) 100 % of control

[Cu+2].[NH-]C1(C(=O)O)CCCC1.[NH-]C1(C(=O)O)CCCC1
inactive: dose: 2.5 mg/kg/injection, schedule: Q01DX009 (ip), vehicle: saline with Tween-80 89 % of control | dose: 5.0 mg/kg/injection, schedule: Q01DX009 (ip), vehicle: saline with Tween-80 100 % of control | dose: 5.0 mg/kg/injection, schedule: Q04DX003 (ip), vehicle: saline 91 % of control | dose: 10.0 mg/kg/injection, schedule: Q01DX009 (ip), vehicle: saline with Tween-80 94 % of control

CCCCCC1SC1CC1SC1CCCCCCCC(=O)N(CCCC)CCCC (centres undefined)
inactive: dose: 75.0 mg/kg/injection, schedule: Q04DX003 (ip), vehicle: saline 98 % of control | dose: 150.0 mg/kg/injection, schedule: Q04DX003 (ip), vehicle: saline 107 % of control | dose: 300.0 mg/kg/injection, schedule: Q04DX003 (ip), vehicle: saline 97 % of control

O=C(c1cccnc1)c1cc2ccccc2n1S(=O)(=O)c1ccccc1
inactive: [1] 97 % of control | [2] 97 % of control | [3] 97 % of control

CCCCCCCCNC(=O)CC
inactive: [4] 103 % of control | dose: 100.0 mg/kg/injection, schedule: Q01DX009 (ip), vehicle: saline 94 % of control | dose: 100.0 mg/kg/injection, schedule: Q04DX003 (ip), vehicle: saline 97 % of control | [5] 100 % of control | dose: 200.0 mg/kg/injection, schedule: Q01DX009 (ip), vehicle: saline 94 % of control | dose: 200.0 mg/kg/injection, schedule: Q04DX003 (ip), vehicle: saline 101 % of control | [6] 100 % of control | dose: 400.0 mg/kg/injection, schedule: Q01DX009 (ip), vehicle: saline 92 % of control | dose: 400.0 mg/kg/injection, schedule: Q04DX003 (ip), vehicle: saline 98 % of control

CSc1nc(=O)[nH]nc1Sc1ccccc1
inactive: dose: 75.0 mg/kg/injection, schedule: Q01DX001 (ip), vehicle: saline 102 % of control | dose: 150.0 mg/kg/injection, schedule: Q01DX001 (ip), vehicle: saline 101 % of control

CC(=O)C1=C(O)C(CSCc2ccccc2)N(C)C1=O (centres undefined)
inactive: dose: 75.0 mg/kg/injection, schedule: Q01DX001 (ip), vehicle: other 95 % of control | dose: 150.0 mg/kg/injection, schedule: Q01DX001 (ip), vehicle: other 92 % of control | dose: 300.0 mg/kg/injection, schedule: Q01DX001 (ip), vehicle: other 91 % of control

NCCCOCCOCCOCCOCCCN
inactive: dose: 25.0 mg/kg/injection, schedule: Q04DX002 (ip), vehicle: saline 105 % of control | dose: 50.0 mg/kg/injection, schedule: Q04DX002 (ip), vehicle: saline 101 % of control | dose: 100.0 mg/kg/injection, schedule: Q01DX001 (ip), vehicle: saline sonified 97 % of control | [7] 101 % of control

CC1=C/C(=N\Nc2ccccc2)C(C(O)(C(F)(F)Cl)C(F)(F)Cl)C(C)(C)C1 (centres undefined)
inactive: [8] 96 % of control | [9] 94 % of control | [10] 93 % of control

CN(C)N=Nc1ccccc1C(=O)NNC(N)=S
inactive: dose: 18.75 mg/kg/injection, schedule: Q01DX009 (ip), vehicle: Klucel (hydroxypropylcellulose) (HPC) 98 % of control and 103 % of control | dose: 37.5 mg/kg/injection, schedule: Q01DX009 (ip), vehicle: Klucel (hydroxypropylcellulose) (HPC) 121 % of control and 101 % of control | dose: 75.0 mg/kg/injection, schedule: Q01DX009 (ip), vehicle: Klucel (hydroxypropylcellulose) (HPC) 107 % of control and 109 % of control | dose: 150.0 mg/kg/injection, schedule: Q01DX009 (ip), vehicle: Klucel (hydroxypropylcellulose) (HPC) 115 % of control and 116 % of control | dose: 300.0 mg/kg/injection, schedule: Q01DX009 (ip), vehicle: Klucel (hydroxypropylcellulose) (HPC) 104 % of control and 107 % of control

Cc1cccc(CC(C)O)n1 (centres undefined)
inactive: [4] 96 % of control | dose: 100.0 mg/kg/injection, schedule: Q04DX002 (ip), vehicle: saline with Tween-80 97 % of control | [7] 93 % of control | [8] 96 % of control and 97 % of control | [5] 94 % of control | dose: 200.0 mg/kg/injection, schedule: Q04DX002 (ip), vehicle: saline with Tween-80 106 % of control | dose: 200.0 mg/kg/injection, schedule: Q04DX002 (ip), vehicle: saline 96 % of control | [9] 86 % of control and 112 % of control | [6] 98 % of control | dose: 400.0 mg/kg/injection, schedule: Q04DX002 (ip), vehicle: saline with Tween-80 93 % of control | dose: 400.0 mg/kg/injection, schedule: Q04DX002 (ip), vehicle: saline 93 % of control | [10] 97 % of control and 106 % of control

O=C(Nc1ccc(Cl)c(Cl)c1)Nc1c(Oc2ccc(Cl)c(Cl)c2)ccc(Cl)c1S(=O)(=O)O
inactive: dose: 3.12 mg/kg/injection, schedule: Q01DX009 (ip), vehicle: saline with Tween-80 109 % of control | dose: 6.25 mg/kg/injection, schedule: Q01DX009 (ip), vehicle: saline with Tween-80 109 % of control | dose: 12.5 mg/kg/injection, schedule: Q01DX009 (ip), vehicle: saline with Tween-80 110 % of control | dose: 25.0 mg/kg/injection, schedule: Q01DX009 (ip), vehicle: saline with Tween-80 113 % of control | [11] 104 % of control | [12] 113 % of control | [8] 108 % of control | [9] 101 % of control

CCOC(=O)C1C(C(=O)OCC)C(C)(C)C1N(C)C (centres undefined)
inactive: [11] 107 % of control | [12] 98 % of control | dose: 200.0 mg/kg/injection, schedule: Q01DX009 (ip), vehicle: saline with Tween-80 98 % of control

CC1Sc2ccccc2-c2[nH]c3ccccc3c21 (centres undefined)
inactive: [8] 97 % of control | [9] 87 % of control | [10] 90 % of control

CC1(C)CCC2(C)CC(C(=O)O)C(=O)C=C2C1 (centres undefined)
inactive: [1] 100 % of control | [2] 92 % of control | [3] 96 % of control
